From US9205073B2, “Method for treating virus infection using derivative of aniline” (CHINA MEDICAL UNIVERSITY, priority 2014, dated 2015)

Assays:
[1] = system: JEV T1P1; experiment: Cytopathic effect test, JEV T1P1-infected BHK-21 cells; format: cell-based, Japanese encephalitis virus
Description: (§1) BHK-21 cells and/or TE671cells were separately cultured in a 24-well culture plate, with an initial density of 3×10^4 per well, and with 1 ml of 2% FBS-containing MEM medium per well. The cells were incubated in an incubator (37° C., 5% CO2) overnight, and the medium was removed until the cells adhered to the plate. Then, fresh 2% FBS-containing MEM medium was simultaneously added into each well of the culture plate. The cells were infected with a JEV T1P1 virus strain, wherein the amount of JEV T1P1 used to infect BHK-21 cells was a multiplicity of infection (M.O.I.)=0.1, and the amount of JEV T1P1 used to infect TE671 cells was M.O.I.=0.05. Different concentrations of compound 1 (final concentrations were 0, 2.5, 25 and 125 μM, respectively) were added into different wells. The culture plate was placed into an incubator (37° C., 5% CO2) and maintained therein.
(§2) When BHK-21 cells were infected with JEV T1P1 virus strain for 48 and 72 hours as indicated in the above experiment (1), the cytopathic effect was observed by photography, while the cytopathic effect of TE671 cells was observed by photography when TE671 cells were infected with the JEV T1P1 virus strain for 36 and 48 hours. In addition, 200 μl culture medium supernatant of both cells was collected from each time point (i.e., 48 and 72 hours), thereby, providing the use for a viral plaque test in Example 4.

[2] = system: JEV T1P1; experiment: Cytopathic effect test, JEV T1P1-infected TE671 cells; format: cell-based, Japanese encephalitis virus
Description: as §1, §2

[3] = system: JEV T1P1; experiment: Apoptosis test (Annexin V/PI flow cytometry), JEV T1P1-infected TE671 cells; format: cell-based, Japanese encephalitis virus; settings: JEV T1P1 infection 36 hours, compound 125 μM; infected without compound 20.1%
Description: as §1
BHK-21 cells and TE 671 cells were washed with PBS after being infected with the JEV T1P1 virus strain for 36 hours in the above experiment (1). Then, PBS was removed. Trypsin-EDTA (150 μl) was added into each well. The cells were incubated in an incubator at 37° C. for 3 minutes. Then, 1 ml MEM medium was added into each well to neutralize EDTA. […] The cells were maintained in the dark for 5 to 10 minutes, and then analyzed by flow cytomerty.

[4] = system: JAK-STAT, AkT-mTOR and ERK-CREB signaling pathway-related proteins; experiment: Western blot of signaling pathway phosphorylation in JEV T1P1-infected TE671 cells; format: cell-based; settings: 36 hours, 2.5-250 μM
Description: TE671cells were cultured in a 6-well culture plate at an initial density of 3×10^5 per well with 2 ml of 2% FBS-containing MEM medium per well. The cells were incubated in an incubator (37° C., 5% CO2) overnight. The medium was removed until the cells adhered to the plate. 1 ml of fresh 2% FBS-containing MEM medium was simultaneously added into each well. The cells were infected with JEV T1P1virus strain (M.O.I.=0.05). Different concentrations of compound 1 (the final concentrations were 0, 2.5, 25, 125 and 250 μM, respectively) were added into different wells. The cells were incubated in an incubator (37° C., 5% CO2) for 36 hours. The supernatant was removed, and the TE671 cells were washed with PBS. The PBS was removed, and 150 μl Trypsin-EDTA was added into each well. The cells were incubated in an incubator at 37° C. for 3 minutes. Then, 1 ml MEM medium was added into each well to neutralize EDTA, and the cells were separately collected into 15 ml tubes and precipitated by centrifugation (2000 rpm, 3 minutes). The supernatants were removed. The cells were resuspended with 1 ml PBS per tube, transferred into 1.5 ml microtubes respectively, and precipitated by centrifugation (2000 rpm, 3 minutes). The supernatants were removed and 100 μl radioimmunoprecipitation buffer (RIPA buffer) was added into each well. […]
The above protein samples were analyzed by protein electrophoresis. […]

SMILES: CCOC(=O)C1=C(Nc2cc(C)cc(C)c2)OCC1=O [Compound 1, ethyl 2-(3′,5′-dimethylanilino)-4-oxo-4,5-dihydrofuran-3-carboxylate]
- JEV T1P1-induced cytopathic effect ([1]; infected 48 hours, M.O.I.=0.1, compound 25 μM simultaneously): significantly reduced
- JEV T1P1-induced cytopathic effect ([1]; infected 72 hours, M.O.I.=0.1, compound 125 μM simultaneously): effectively inhibited
- JEV T1P1-induced cytopathic effect ([2]; infected 36 hours, M.O.I.=0.05, compound 25 μM simultaneously): inhibited
- JEV T1P1-induced cytopathic effect ([2]; infected 48 hours, M.O.I.=0.05, compound 25 μM): inhibited
- ratio of TE671 cells getting into late apoptosis [3]: 4.7%
- phosphorylation levels of JAK-STAT, AkT-mTOR and ERK-CREB signaling pathway-related proteins [4]: increased in a concentration dependent manner
